In patent publication US4897406A, “Rhodanine derivatives and pharmaceutical compositions” (Nisshin Flour Milling Co., Ltd., priority 1987, dated 1990):

Columns and labels:
[1] = tested on: contraction of excised bronchi of guinea pigs by histamine; assay: Inhibition of contraction of excised bronchi of guinea pigs by histamine; details: 10^-5 M
PGF2α = assay: Inhibition of contraction of excised bronchi of guinea pigs by PGF2α; details: 10^-5 M
[2] = tested on: excised bronchi of guinea pigs by the action of leukotriene D4; assay: Inhibitory activity on leukotrienes (contraction induced by leukotriene D4 in excised guinea pig bronchi); details: Conc. 10^-5 M, treatment before 10 minutes
Method: The compounds were evaluated for inhibitory activity on leukotrienes in the following test.
In this test, contraction was induced in excised bronchi of guinea pigs by the action of leukotriene D4, and inhibitory action of the present compounds after treatment before 10 minutes was measured and recorded via a transducer.

SRS-A = assay: Inhibitory activity on biosynthesis and release of chemical mediator (SRS-A), bioassay using excised ileum; design: species or system guinea pigs; details: Conc. 10^-5 M
Method: The compounds were evaluated for inhibitory activity on biosynthesis and release of a chemical mediator according to the method described by S. Watanabe-Kohno et al [J. Immunol., 125, 946 (1980)] and J. Augastein et al [Nature, 245, 215 (1973)]. In this test, SRS-A was used as a chemical mediator.
The chemical mediator contained in the reaction solution was determined according to bioassay using excised ileum of guinea pigs.
Percent Inhibition (%)=(1-A'/A)×100
A'=contraction level by the reaction solution treated with test compound
A=contraction level by the control reaction solution

rats = assay: Toxicity to rats by oral administration; format: in vivo; details: 1000 mg/kg by oral administration

Compound	inhibitory activity on contraction by histamine [1]	inhibitory activity on contraction by PGF2α (PGF2α)	Percent Inhibition (inhibitory activity on leukotrienes) [2]	Percent Inhibition (biosynthesis and release of chemical mediator) (SRS-A)	mortality (rats)
CC(C=Cc1cccs1)=C1SC(=S)NC1=O (single isomer, unassigned) [Isomer B of Example 15, 5-[3-(2-Thienyl)-1-methyl-2-propenylidene]-4-oxo-2-thioxothiazolidine]	60-90%	60-90%	–	–	–
COc1ccc(C=CC(C)=C2SC(=S)NC2=O)cc1OC (single isomer, unassigned) [Isomer B of Example 1]	60-90%	60-90%	82.4%	58.0%	–
CCOC(=O)CCCC(C=Cc1ccc(OC)c(OC)c1)=C1SC(=S)NC1=O [Ethyl ester compound of Example 19, ethyl 7(3,4-dimethoxyphenyl)-5-(4-oxo-2-thioxo-5-thiazolidinilydene)-6-heptenoate]	–	–	90.5%	–	–
CCOC(=O)CCC(C=Cc1ccc(OC)c(OC)c1)=C1SC(=S)NC1=O [Compound of Example 14, Ethyl 6-(3,4-dimethoxyphenyl)-4-(4-oxo-2-thioxo-5-thiazolidinylidene)-5-hexenoate]	60-90%	60-90%	98.1%	–	–
COc1ccc(C=CC(CCCC(=O)O)=C2SC(=S)NC2=O)cc1OC (single isomer, unassigned) [Isomer B of Example 19, 7-(3,4-dimethoxyphenyl)-5-(4-oxo-2-thioxo-5-thiazolidinilydene)-6-heptenoic acid]	–	–	85.1%	–	–
COc1ccc(CCC(C)=C2SC(=S)NC2=O)cc1OC (single isomer, unassigned) [Isomer A of Example 12, 5-[3-(3,4-Dimethoxyphenyl)-1-methylpropylidene]-4-oxo-2-thioxothiazolidine]	60-90%	60-90%	100.0%	76.2%	no mortality was observed
CCCC(C=Cc1ccc(C(=O)O)cc1)=C1SC(=S)NC1=O (single isomer, unassigned) [Isomer B of Example 17, 4-[3-(4-Oxo-2-thioxo-5-thiazolidinylidene)-1-hexen-1-yl]benzoic acid]	–	–	79.8%	–	–
CCCC(C=Cc1ccc(C(=O)O)cc1)=C1SC(=S)NC1=O (single isomer, unassigned) [Isomer A of Example 17, 4-[3-(4-Oxo-2-thioxo-5-thiazolidinylidene)-1-hexen-1-yl]benzoic acid]	–	–	84.7%	–	–
COc1ccc(CCC(C)=C2SC(=S)NC2=O)cc1OC (single isomer, unassigned) [Isomer B of Example 12, 5-[3-(3,4-Dimethoxyphenyl)-1-methylpropylidene]-4-oxo-2-thioxothiazolidine]	60-90%	60-90%	97.9%	70.6%	no mortality was observed
